Experiments:
[1] = system: thrombus formation in an arteriovenous shunt; assay: Arteriovenous shunt model (rat), antithrombotic action; format: in vivo; details: oral dosage, read-out: ED50 [mg/kg] p.o.
Experimental: Fasting male rats (strain: HSD CPB:WU) having a weight of 200-250 g are anesthetized using a Rompun/Ketavet solution (12 mg/kg/50 mg/kg). Thrombus formation is induced in an arteriovenous shunt following the method described by Christopher N. Berry et al., Br. J. Pharmacol. (1994), 113, 1209-1214. For this, the left jugular vein and the right carotid artery are exposed. An extracorporeal shunt is arranged between the two vessels by means of a 10 cm long polyethylene tube (PE 60). This polyethylene tube was linked in the center to a further 3 cm long polyethylene tube (PE 160), which contained a nylon thread which was roughened and linked to a loop for the production of a thrombogenic surface. The extracorporeal circulation is maintained for 15 minutes. The shunt is then removed and the nylon thread with the thrombus is immediately weighed. The unloaded weight of the nylon thread had been determined before the start of the experiment. Before starting the extracorporeal circulation, test substances are administered to conscious animals either intravenously via the caudal vein or orally by means of stomach tube.

melting point [°C]	SMILES	ED50 [1] [mg/kg]
	O=C(NC[C@H]1CN(c2ccc(N3CCOCC3=O)cc2)C(=O)O1)c1ccc(Cl)s1 [Example 44, 5-Chloro-N-({(5S)-2-oxo-3-[4-(3-oxo-4-morpholinyl)phenyl]-1,3-oxazolidin-5-yl}methyl)-2-thiophenecarboxamide]	3
228 to 230	O=C(NC[C@H]1CN(c2ccc(N3CCCOC3=O)cc2)C(=O)O1)c1ccc(Cl)s1 [Example 255]	

Reference: patent US20100160301A1, “MICROANGIOPATHY TREATMENT AND PREVENTION” (BAYER HEALTHCARE AG, priority 2005, published 2010)
